Publication PMC9298916, “The Discovery and Structure‐Activity Evaluation of (+)‐Floyocidin B and Synthetic Analogs” (Chemmedchem, 2021)
Converted amounts (≈) assume the structure as drawn. Where two headings read alike, the source gives them in different places.

Assays:
M. tuberculosis H37Rv = assay: Growth inhibition, M. tuberculosis H37Rv (Middlebrook 7H9, CellTiter-Blue); type: cell-based; conditions: M. tuberculosis H37Rv (Mtb), 6 days
E. coli ATCC25922 = assay: Micro-broth dilution growth inhibition, E. coli (CAMH); type: cell-based; conditions: Escherichia coli, 18 h
E. coli ATCC25922 MHC = assay: Micro-broth dilution growth inhibition, E. coli in CAMH with 44 mM sodium bicarbonate (MHC); type: cell-based; conditions: Escherichia coli, ATCC25922, 18 h, E. coli ATCC25922 MHC (CAMH + 44 mM sodium bicarbonate), read-out: MIC
P. aeruginosa ATCC27853 = assay: Micro-broth dilution growth inhibition, P. aeruginosa; type: cell-based; conditions: Pseudomonas aeruginosa, 18 h
S. aureus ATCC25923 = assay: Micro-broth dilution growth inhibition, S. aureus; type: cell-based; conditions: Staphylococcus aureus, 18 h
[1] = system: M. catarrhalis ATCC25238I; assay: Micro-broth dilution growth inhibition, M. catarrhalis; type: cell-based
C. albicans FH2173 = assay: Micro-broth dilution growth inhibition, C. albicans (ATP quantification); type: cell-based; conditions: Candida albicans, FH2173, 48 h, read-out: MIC
physchem = type: physicochemical; conditions: for chromatographic logD: pH 7.4, Log D pH 7.4
Method: 2.4. Assay descriptions for the profiling of all four stereoisomers of (+)-floyocidin B and (−)-avicennone C,1 the avicennone C-floyocidin B hybrids 35, ent-35, 36 and ent-36 as well as the natural product (+)-floyocidin A.
Determination of logD 7.4
LogD values at pH 7.4 were determined by a standardized HPLC method derived from by Genieser et al.8 The calculation of the logD value for measured compounds is performed by comparison of the retention times with standard compounds of known distribution coefficients between 1 -octanol and water at pH 7.4. […]
8 Krass, J. D., Jastorff, B., and Genieser, H.-G. Anal. Chem. 1997, 69, 2575–2581. […]

[2] = Microsomal stability, human; type: in vitro ADME; conditions: 1 µM compound; for microsomal CLint at 1 µM / half-life at 1 µM: human, pooled liver microsomes, pH 7.4, human liver microsomes 0.5 mg/mL; for half-life at 1 µM: read-out: Microsomal stability t1/2, Human
Method: (§1) 2.4. Assay descriptions for the profiling of all four stereoisomers of (+)-floyocidin B and (−)-avicennone C,1 the avicennone C-floyocidin B hybrids 35, ent-35, 36 and ent-36 as well as the natural product (+)-floyocidin A. […]
(§2) Pooled liver microsomes are purchased. Microsomes are stored at –80 °C prior to use. Microsomes (final protein concentration 0.5 mg/mL), 0.1 M phosphate buffer pH 7.4, and test compound (final substrate concentration 1 µM; final DMSO concentration 0.25%) are preincubated at 37 °C prior to the addition of NADPH (final concentration 1 mM) to initiate the reaction. A minus cofactor control i ncubation is included for each compound tested where 0.1 M phosphate buffer pH 7.4 is added instead of NADPH. Two control compounds are included. All incubations are performed singularly for each test compound. Each compound is incubate d for 0, 5, 15, 30, and 45 min. The control is incubated for 45 min only. The reactions are stopped by transferring incubate into acetonitrile at the appropriat e time points, in a 1:3 ratio. The termination plates are centrifuged at 3,000 rpm for 20 min at 4 °C to precipitate the protein.
(§3) From a plot of ln peak area ratio (compound peak area/internal standard peak area) against time, the gradient of the line is determined. Subsequently, half -life and intrinsic clearance are calculated using the equations below:
(§4) Elimination rate constant (k) = (- gradient)
(§5) Intrinsic clearance (CL )(µL/min/mg protein) = V x 0.693 […]
(§6) where V = Incubation volume (µL)/Microsomal protein (mg)
(§7) Relevant control compounds are assessed, ensuring intrinsic clearance values fall within the specified limits (if available). […]

[3] = Microsomal stability, mouse; type: in vitro ADME; conditions: 1 µM compound; for microsomal CLint at 1 µM / half-life at 1 µM: mouse, pooled liver microsomes, pH 7.4, mouse liver microsomes 0.5 mg/mL; for microsomal CLint at 1 µM: read-out: Microsomal stability CLint, Mouse; for half-life at 1 µM: read-out: Microsomal stability t1/2, Mouse
Method: as §1, §2, §3, §4, §5, §6, §7

THP1 cells = assay: Cytotoxicity on THP1 cells (CellTiterGlo); type: cell-based; conditions: for Cytotoxicity TC50 THP1: THP1 cells, 40 h
Method: (§8) Cytotoxicity on THP1 and HepG2 cells
(§9) After 4 hours of HepG2 cell line (provided by ATCC) plating at 2.500 cells /well in 384-w plates, compounds were added to the cells. After an incubation at 37 °C for 40 h, the CellTiterGlo assay (provided by Promega) was performed.
(§10) Luminescence measurement is related to the cell viability. Compound activity is determined by using the control wells with no treatment as control (100% of growth). The assay was performed identically with THP1 cells. All incubations were […]

HepG2 cells = assay: Cytotoxicity on HepG2 cells (CellTiterGlo); type: cell-based; conditions: 40 h
Method: as §8, §9, §10

[4] = Cellular permeability assay utilizing Caco2 cell line; conditions: human
Caco-2 cells = assay: as above; conditions: 10 µM, 120 min
[5] = Mycobacterium tuberculosis, 144 h, read-out: MIC
[6] = Moraxella catarrhalis, ATCC25238I, read-out: MIC
[7] = A2B in the presence of elacridar
[8] = human liver microsomes 0.5 mg/mL
[9] = mouse liver microsomes 0.5 mg/mL

SMILES | MIC (M. tuberculosis H37Rv; [5]) [µg/mL] | MIC (E. coli ATCC25922) [µg/mL] | MIC (E. coli ATCC25922 MHC) [µg/mL] | MIC (P. aeruginosa ATCC27853) [µg/mL] | MIC (S. aureus ATCC25923) [µg/mL] | MIC [1, 6] [µg/mL] | MIC (C. albicans FH2173) [µg/mL] | chromatographic logD (physchem) | microsomal CLint at 1 µM [2] [µL/min/mg] | half-life at 1 µM [2] [min] | microsomal CLint at 1 µM [3] [µL/min/mg] | half-life at 1 µM [3] [min] | Cytotoxicity TC50 THP1 (THP1 cells) [µM] | Cytotoxicity TC50 HepG2 (HepG2 cells) [µM] | Caco‐2 permeability recovery +Elacridar (Caco-2 cells; [7]) | Caco‐2 permeability recovery A2B (Caco-2 cells) [%] | Caco‐2 permeability Papp A2B (Caco-2 cells) | other results
CCC/C=C/c1cc2c(cn1)[C@@H](O)[C@H]1O[C@@]1(CC=C(C)C)C2=O [compound 4, (1aR,2R,7aR)‐2‐Hydroxy‐7 a‐(3‐methylbut‐2‐en‐1‐yl)‐5‐((E)‐pent‐1‐en‐1‐yl)‐1 a,7 a‐dihydrooxireno[2,3‐g]isoquinolin‐7(2H)‐one] | 9.4 (≈ 30 µM) | > 128 | > 128 | > 128 | > 128 | 16 (≈ 51.1 µM) | > 128 | 4.01 | 72.7 | 19.1 | 349 | 3.97 | 5.84 | 4.5 | 14.2% | 10.1 | – | Papp at 120 min, 10 µM ([4]; Caco-2, Caco‐2 permeability Papp +Elacridar, A2B in the presence of elacridar): 5.62 ×10⁻⁶ cm/s; Papp A→B at 120 min, 10 µM ([4]; Caco-2, Caco‐2 permeability Papp A2B, A2B): 4.11 ×10⁻⁶ cm/s
CCCC=Cc1ccc2c(c1)C(=O)C1(CC=C(C)C)OC1C2O (centres unmarked) [compound 35] | 9.4 (≈ 30.1 µM) | > 128 | > 128 | > 128 | > 128 | 64 (≈ 205 µM) | > 128 | 4.7 | 45.5 | 30.5 | 1040 | 1.33 | 12.9 | 9.39 | 29.6% | 76.0 | 135 10^−7 cm s^−1 | Caco‐2 permeability Papp +Elacridar (Caco-2 cells; [7]): 181 10^−7 cm s^−1
CCC/C=C/c1ccc2c(c1)C(=O)[C@]1(CC=C(C)C)O[C@@H]1[C@H]2O [compound 36] | 9.4 (≈ 30.1 µM) | > 128 | > 128 | > 128 | > 128 | 8 (≈ 25.6 µM) | > 128 | 4.73 | 39.7 | 34.9 | 259 | 5.36 | 15.1 | 16.1 | – | – | – | Cytotoxicity relative to 4 (THP1 cells; TC50 in THP‐1 and HepG2 compared with 4): three times less cytotoxic than 4
CCCC=Cc1ccc2c(c1)C(=O)C1(CC=C(C)C)OC1C2O (stereo not drawn) [ent‐35] | – | – | – | – | – | – | – | – | – | – | – | – | 12.9 | 14.7 | [b] (46.1) % | 37.2 | 162 10^−7 cm s^−1 | MIC (M. tuberculosis H37Rv): 9.4 µg/mL (≈ 30.1 µM); MIC [1]: 32 µg/mL (≈ 102 µM); Log D pH 7.4 (physchem; pH 7.4): 4.72; Microsomal stability CLint, Human [2, 8]: 40.5 μL/min/mg protein; Microsomal stability t1/2, Human [2, 8]: 34.3 min; Microsomal stability CLint, Mouse [3, 9]: 561 μL/min/mg protein; Microsomal stability t1/2, Mouse [3, 9]: 2.47 min; Caco‐2 permeability recovery +Elacridar (Caco-2 cells; A2B in the presence of elacridar, listed as ent-35): 46.1%; Caco‐2 permeability recovery A2B (Caco-2 cells; listed as ent-35): 37.2%
